Drawing on ChEMBL document CHEMBL2311326, “Synthesis and evaluation of novel sulfenamides as novel anti Methicillin-resistant Staphylococcus aureus agents” (2013), this text covers MIC for 22 molecules.

Holding throughout (type): functional
The subject of one assay is Bacillus subtilis. Kind of assay: Antimicrobial activity against Bacillus subtilis ATCC 6633.
Another assay deals with Pseudomonas aeruginosa. Put plainly: Antimicrobial activity against Pseudomonas aeruginosa PAO1.
Another assay relates to Staphylococcus aureus. Kind of assay: Antimicrobial activity against methicillin-resistant Staphylococcus aureus.

Each structure is given as a SMILES string. Values after ≈ are worked out from the molar mass of the structure shown.

For orientation: MIC means the lowest concentration found to suppress growth. The low end stands for inhibition by little substance, the high end for a need for much substance. As to `CCOC(=O)c1ccccc1SN1C(=O)C(=O)c2cc(Br)cc(Br)c21`, the MIC was greater than 100 µg/mL in the assay with Bacillus subtilis, greater than 100 µg/mL in the assay with Pseudomonas aeruginosa and 25 µg/mL (≈ 51.5 µM) in the assay on Staphylococcus aureus.
Turning to `CCOC(=O)[C@H](Cc1c[nH]c2ccccc12)NSc1ccc(C)cc1`, the MIC was 25 µg/mL (≈ 70.5 µM) in the assay with Bacillus subtilis, greater than 100 µg/mL against Pseudomonas aeruginosa and greater than 100 µg/mL in the assay with Staphylococcus aureus.
Turning to `Cc1ccc(SN[C@@H](Cc2c[nH]c3ccccc23)C(=O)OC(C)C)cc1`, the MIC was 25 µg/mL (≈ 67.8 µM) in the assay on Bacillus subtilis, greater than 100 µg/mL with Pseudomonas aeruginosa and greater than 100 µg/mL against Staphylococcus aureus.
On to `COC(=O)[C@H](Cc1c[nH]c2ccccc12)NSc1ccc([N+](=O)[O-])cc1`, for which the results for the MIC against Bacillus subtilis, against Pseudomonas aeruginosa and in the assay with Staphylococcus aureus were 25 µg/mL (≈ 67.3 µM), greater than 100 µg/mL and greater than 100 µg/mL, respectively.
Consider `COC(=O)[C@H](Cc1c[nH]c2ccccc12)NSc1ccc([N+](=O)[O-])cc1[N+](=O)[O-]`, for which the MIC was 25 µg/mL (≈ 60 µM) against Bacillus subtilis, greater than 100 µg/mL against Pseudomonas aeruginosa and greater than 100 µg/mL against Staphylococcus aureus.
In the case of `CCOC(=O)[C@H](Cc1c[nH]c2ccccc12)NSc1ccc([N+](=O)[O-])cc1[N+](=O)[O-]`, the MIC with Bacillus subtilis is 25 µg/mL (≈ 58.1 µM); against Pseudomonas aeruginosa, greater than 100 µg/mL; in the assay with Staphylococcus aureus it was greater than 100 µg/mL.
As to `COC(=O)CC[C@H](NSc1ccccc1[N+](=O)[O-])C(=O)OC`, the MIC is 25 µg/mL (≈ 76.1 µM) in the assay with Bacillus subtilis, greater than 100 µg/mL in the assay with Pseudomonas aeruginosa and 12.5 µg/mL (≈ 38.1 µM) in the assay on Staphylococcus aureus.
For `CCOC(=O)CC[C@H](NSc1ccccc1[N+](=O)[O-])C(=O)OCC`, the figures for the MIC against Bacillus subtilis, in the assay on Pseudomonas aeruginosa and against Staphylococcus aureus were 25 µg/mL (≈ 70.1 µM), greater than 100 µg/mL and 25 µg/mL (≈ 70.1 µM), respectively.
In the case of `COC(=O)CC[C@H](NSc1ccc([N+](=O)[O-])cc1[N+](=O)[O-])C(=O)OC`, the MIC with Bacillus subtilis was 50 µg/mL (≈ 134 µM); against Pseudomonas aeruginosa, greater than 100 µg/mL; against Staphylococcus aureus, greater than 100 µg/mL.
Consider `CCOC(=O)CC[C@H](NSc1ccc([N+](=O)[O-])cc1[N+](=O)[O-])C(=O)OCC`, for which the MIC was 50 µg/mL (≈ 125 µM) in the assay on Bacillus subtilis, greater than 100 µg/mL in the assay with Pseudomonas aeruginosa and greater than 100 µg/mL with Staphylococcus aureus.
For the molecule `CC(C)OC(=O)CC[C@H](NSc1ccc([N+](=O)[O-])cc1[N+](=O)[O-])C(=O)OC(C)C`, the MIC against Bacillus subtilis is 25 µg/mL (≈ 58.2 µM); in the assay with Pseudomonas aeruginosa it was greater than 100 µg/mL; in the assay with Staphylococcus aureus, greater than 100 µg/mL.
Take `O=C1C(=O)N(Sc2ccccc2[N+](=O)[O-])c2ccccc21`: the values for the MIC against Bacillus subtilis, with Pseudomonas aeruginosa and in the assay on Staphylococcus aureus were greater than 100 µg/mL, greater than 100 µg/mL and 25 µg/mL (≈ 83.3 µM), respectively.
Take `O=C1C(=O)N(Sc2ccccc2)c2ccccc21`: the MIC in the assay on Bacillus subtilis is 25 µg/mL (≈ 97.9 µM); with Pseudomonas aeruginosa, greater than 100 µg/mL; against Staphylococcus aureus, 50 µg/mL (≈ 196 µM).
In the case of `Cc1ccc(SN2C(=O)C(=O)c3ccccc32)cc1`, the MIC in the assay on Bacillus subtilis, against Pseudomonas aeruginosa and against Staphylococcus aureus was greater than 100 µg/mL throughout.
For the molecule `COC(=O)c1ccccc1SN1C(=O)C(=O)c2ccccc21`, the MIC was greater than 100 µg/mL in the assay with Bacillus subtilis, greater than 100 µg/mL with Pseudomonas aeruginosa and 50 µg/mL (≈ 160 µM) with Staphylococcus aureus.
On to `CCOC(=O)c1ccccc1SN1C(=O)C(=O)c2ccccc21`, for which the MIC is greater than 100 µg/mL against Bacillus subtilis, greater than 100 µg/mL in the assay on Pseudomonas aeruginosa and 12.5 µg/mL (≈ 38.2 µM) against Staphylococcus aureus.
Regarding `O=C1C(=O)N(Sc2ccc([N+](=O)[O-])cc2[N+](=O)[O-])c2ccccc21`, the MIC against Bacillus subtilis, in the assay on Pseudomonas aeruginosa and against Staphylococcus aureus was greater than 100 µg/mL throughout.
As for `COC(=O)c1ccccc1SN1C(=O)C(=O)c2cccc(Cl)c21`, the MIC against Bacillus subtilis is greater than 100 µg/mL; against Pseudomonas aeruginosa, greater than 100 µg/mL; in the assay on Staphylococcus aureus it was 12.5 µg/mL (≈ 35.9 µM).
As for `CCOC(=O)c1ccccc1SN1C(=O)C(=O)c2cccc(Cl)c21`, the MIC against Bacillus subtilis, with Pseudomonas aeruginosa and against Staphylococcus aureus was greater than 100 µg/mL throughout.
As for `O=C1C(=O)N(Sc2ccccc2[N+](=O)[O-])c2c(Br)cccc21`, the MIC was greater than 100 µg/mL in the assay with Bacillus subtilis, greater than 100 µg/mL against Pseudomonas aeruginosa and 12.5 µg/mL (≈ 33 µM) in the assay on Staphylococcus aureus.
Consider `CCOC(=O)c1ccccc1SN1C(=O)C(=O)c2cccc(Br)c21`, for which the MIC in the assay on Bacillus subtilis, against Pseudomonas aeruginosa and against Staphylococcus aureus was greater than 100 µg/mL in each case.
Regarding `O=C1C(=O)N(Sc2ccccc2[N+](=O)[O-])c2c(Br)cc(Br)cc21`, the values for the MIC with Bacillus subtilis, with Pseudomonas aeruginosa and with Staphylococcus aureus were greater than 100 µg/mL, greater than 100 µg/mL and 25 µg/mL (≈ 54.6 µM), respectively.
